Here are results for two compounds from patent US6482809B1, “Use of tiludronic acid and derivatives thereof in poultry for the preparation of a medicinal product for preventing and treating osteoporosis” (Ceva Sante Animale, priority 2000, dated 2002).

In data set [1] the test system is egg production of laying hens. The conditions noted are these: administered during laying; decrease or even stoppage of laying as a function of the dose; cited from earlier work.
Data set [2] concerns trabecular bone of laying hens. The conditions noted are these: cited from earlier work.
Data set [3] has as its system medullary bone of laying hens. Particulars: 18 weeks after the onset of laying; treated before the onset of laying; cited from earlier work.
For data set [4], the system named is trabecular bone of the tarsometatarsal bone of hens. The experiment in a line: Histomorphometric examination of trabecular bone volume of the tarsometatarsal bone after a single subcutaneous administration. In kind it is in vivo, hens of ISA Brown strain. How it is done: (§1) A total number of 216 hens of ISA Brown strain between 15 and 17 weeks old was divided into 3 groups for the purpose of evaluating the effects on bone of a single subcutaneous administration of tiludronic acid, in the form of its sodium salt (disodium tiludronate).
(§2) Three doses were compared: 0, 1 and 10 mg/kg (corresponding amount of tiludronic acid/kg). The tiludronic acid was administered in the form of injectable aqueous solutions such that the volume injected per bird was 1 ml per kilo of live weight. The tiludronic acid solutions were thus concentrated to 0.1% and 1% for the doses of 1 and 10 mg/kg, respectively. The control group received a placebo corresponding to water for an injectable preparation. The injections were performed subcutaneously in the region above the superficial pectoral muscle.
(§3) The hens were housed in individual cages in the same building at controlled temperature and hygrometry. Each animal was identified by a number carried on a ring attached to a wing. They received the same standard feed for laying hens, freely throughout the duration of the study. The drinking water was also distributed freely.
(§4) The average age of onset of laying for the hens in this strain is 20 weeks. Consequently, the average delay between the treatment and the age of onset of laying had to be from 3 to 5 weeks. The duration of the study was 40 weeks. At the end of the study, the hens were 55 weeks old.
(§5) Half of the total number was sacrificed on laying the first egg, in order to carry out a histomorphometric examination performed on a decalcified section of the proximal region of one of the tarsometatarsal bones in order to measure the trabecular and medullary bone volumes.
(§6) The other half of the total number of hens was monitored up to 55 weeks of age (i.e. after about 34 weeks of laying), at which point all the remaining animals were sacrificed. The same bone examination was carried out on these animals as on the hens sacrificed after laying the first egg.
(§7) The bone parameters were compared by means of a one-factor variance analysis (dose factor).
(§8) The histomorphometric examination carried out allows the changes in the structure of the bone to be assessed.

Data set [5] has as its system medullary bone of the tarsometatarsal bone of hens. The experiment in a line: Histomorphometric examination of medullary bone volume of the tarsometatarsal bone after a single subcutaneous administration. The data set is classed as in vivo, hens of ISA Brown strain. How it is done: as §1, §2, §3, §4, §5, §6, §7, §8
Data set [6] relates to osteoporosis in menopausal women. The conditions noted are these: 50 or 200 mg per person orally; cited from earlier work.
Setting [7] is: at 55 weeks old, 1 mg/kg single subcutaneous injection.
The mark [8] stands for this setting: at 55 weeks old, 10 mg/kg single subcutaneous injection.

Take `NCCCC(O)(P(=O)(O)O)P(=O)(O)O` [alendronic acid]: the “Effect on egg production” value in data set [1] is given as “harmful effect on egg production”. In addition, in data set [2] (after laying for 18 weeks, 0.01 mg/kg s.c., 6 administrations (total 0.06 mg/kg) from 14 weeks old), the “Trabecular bone volume higher than that of the control hens” value is listed as “about 35%”. In addition, in data set [2] (onset of laying, 0.01 mg/kg subcutaneously, repeated before laying), the “Trabecular bone volume higher on average in the treated hens than in the control hens” value is on record as not above 30%. Moreover, the “Medullary bone volume less than that of the control animals” value in data set [3] is “about 20%”.
On to tiludronic acid, for which the “Trabecular bone loss during laying” value in data set [4] (1 mg/kg, onset of laying to 55 weeks old) was “no trabecular bone loss took place during laying”. The “Trabecular volume versus controls” value in data set [4] (at 55 weeks of age, 10 mg/kg) was “significantly higher than that of the controls”. Moreover, the “Trabecular bone volume of the tarsometatarsal bone” value in data set [4] (setting [7]) is 11.3 ± 2.5%; in data set [4] (setting [8]), 12.0 ± 2.0%; in data set [4] (onset of laying, 1 mg/kg single subcutaneous injection at 15-17 weeks old) it was 10.9 ± 2.9%; in data set [4] (onset of laying, 10 mg/kg single subcutaneous injection at 15-17 weeks old), 13.7 ± 3.3%. For the same compound, the “Variation of trabecular bone volume between the two periods” value in data set [4] (onset of laying to 55 weeks old, 1 mg/kg) was “+4%”; in data set [4] (onset of laying to 55 weeks old, 10 mg/kg), −12%. The “Gain in trabecular bone volume compared with the controls” value in data set [4] (onset of laying, 10 mg/kg) was 12%. The “Average medullary bone volumes, comparison between the groups” value in data set [5] (at 55 weeks old, 0, 1 and 10 mg/kg) was “not significantly different between the groups”. The “Volume of medullary bone of the tarsometatarsal bone” value in data set [5] (setting [7]) turned out to be 2.75 ± 2.72%; in data set [5] (setting [8]), 3.53 ± 3.04%. Moreover, in data set [5] (at 55 weeks old, 10 mg/kg), the “Medullary bone volume higher than that in the control animals” value is recorded as 20%. Moreover, the “Medullary bone volumes, comparison between the groups” value in data set [5] (onset of laying, 0, 1 and 10 mg/kg) was “does not reveal any significant difference between the groups”. In addition, in data set [6], the “Efficacy in osteoporosis in menopausal women” value is reported as “not demonstrated their efficacy”.
